# Data published in PubChem BioAssay (NCI).
#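 Interpolation was linear, between the two tested concentrations surrounding the appropriate level; five concentrations were tested over 48 hours in 96-well plates. At the GI50, growth is halved. TGI: total growth inhibition.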
# Assays:
# Assay in all cases: growth of human tumour cells (NCI), 48 h
# COLO 205 colon = test system: COLO 205 colon
# OVCAR-3 ovarian = test system: OVCAR-3 ovarian
# A498 renal = test system: A498 renal
# KM12 colon = test system: KM12 colon
# ACHN renal = test system: ACHN renal
# M14 melanoma = test system: M14 melanoma
# MCF7 breast = test system: MCF7 breast
# LOX IMVI melanoma = test system: LOX IMVI melanoma
# EKVX NSCLC = test system: EKVX NSCLC
# OVCAR-8 ovarian = test system: OVCAR-8 ovarian
# NCI-H460 lung = test system: NCI-H460 lung
# UACC-257 melanoma = test system: UACC-257 melanoma
# RPMI-8226 leukemia = test system: RPMI-8226 leukemia
# SK-MEL-5 melanoma = test system: SK-MEL-5 melanoma
# HS 578T breast = test system: HS 578T breast
# NCI-H23 lung = test system: NCI-H23 lung
# MALME-3M melanoma = test system: MALME-3M melanoma
# PC-3 prostate = test system: PC-3 prostate
# U251 CNS = test system: U251 CNS
# NCI-H522 lung = test system: NCI-H522 lung
# OVCAR-5 ovarian = test system: OVCAR-5 ovarian
# SK-MEL-28 melanoma = test system: SK-MEL-28 melanoma
# DU-145 prostate = test system: DU-145 prostate
# HCT-116 colon = test system: HCT-116 colon
# SF-268 CNS = test system: SF-268 CNS
# SW-620 colon = test system: SW-620 colon
# CAKI-1 renal = test system: CAKI-1 renal
# MOLT-4 leukemia = test system: MOLT-4 leukemia
# RXF 393 renal = test system: RXF 393 renal
# SF-539 CNS = test system: SF-539 CNS
# MDA-MB-468 breast = test system: MDA-MB-468 breast
# CCRF-CEM leukemia = test system: CCRF-CEM leukemia
# UACC-62 melanoma = test system: UACC-62 melanoma
# SK-MEL-2 melanoma = test system: SK-MEL-2 melanoma
# HOP-62 NSCLC = test system: HOP-62 NSCLC
# HT29 colon = test system: HT29 colon
# NCI-H226 lung = test system: NCI-H226 lung
# MDA-MB-231 breast = test system: MDA-MB-231 breast
# HOP-92 NSCLC = test system: HOP-92 NSCLC
# SK-OV-3 ovarian = test system: SK-OV-3 ovarian
# IGROV1 ovarian = test system: IGROV1 ovarian
# UO-31 renal = test system: UO-31 renal
# HCT-15 colon = test system: HCT-15 colon
# NCI/ADR-RES ovarian = test system: NCI/ADR-RES ovarian
# MDA-MB-435 = test system: MDA-MB-435
# HCC-2998 colon = test system: HCC-2998 colon
# SF-295 CNS = test system: SF-295 CNS
# 786-0 renal = test system: 786-0 renal
# K-562 leukemia = test system: K-562 leukemia
# SNB-19 CNS = test system: SNB-19 CNS
# SN12C renal = test system: SN12C renal
# A549 NSCLC = test system: A549 NSCLC
# T-47D breast = test system: T-47D breast
# TK-10 renal = test system: TK-10 renal
# SR leukemia = test system: SR leukemia
# OVCAR-4 ovarian = test system: OVCAR-4 ovarian
# BT-549 breast = test system: BT-549 breast
smiles,measurement,setting,value
COc1ccccc1/C=C/C(=O)c1ccc(OC)c(S(N)(=O)=O)c1,GI50,COLO 205 colon,3.54 µM
same,TGI,COLO 205 colon,13.4 µM
same,GI50,OVCAR-3 ovarian,2.23 µM
same,TGI,OVCAR-3 ovarian,5.05 µM
same,GI50,A498 renal,10.6 µM
same,TGI,A498 renal,22.6 µM
same,GI50,KM12 colon,2.89 µM
same,TGI,KM12 colon,10 µM
same,GI50,ACHN renal,3.38 µM
same,TGI,ACHN renal,12.4 µM
same,GI50,M14 melanoma,2.71 µM
same,TGI,M14 melanoma,11.8 µM
same,GI50,MCF7 breast,2.67 µM
same,TGI,MCF7 breast,11.3 µM
same,GI50,LOX IMVI melanoma,1.98 µM
same,TGI,LOX IMVI melanoma,5.27 µM
same,GI50,EKVX NSCLC,3.58 µM
same,TGI,EKVX NSCLC,14.1 µM
same,GI50,OVCAR-8 ovarian,2.36 µM
same,TGI,OVCAR-8 ovarian,7.16 µM
same,GI50,NCI-H460 lung,2.09 µM
same,TGI,NCI-H460 lung,5.51 µM
same,GI50,UACC-257 melanoma,5.96 µM
same,TGI,UACC-257 melanoma,19.6 µM
same,GI50,RPMI-8226 leukemia,2.49 µM
same,TGI,RPMI-8226 leukemia,7.46 µM
same,GI50,SK-MEL-5 melanoma,3.85 µM
same,TGI,SK-MEL-5 melanoma,14.2 µM
same,GI50,HS 578T breast,3.27 µM
same,TGI,HS 578T breast,20 µM
same,GI50,NCI-H23 lung,2.29 µM
same,TGI,NCI-H23 lung,9.56 µM
same,GI50,MALME-3M melanoma,3.99 µM
same,TGI,MALME-3M melanoma,16.2 µM
same,GI50,PC-3 prostate,4.81 µM
same,TGI,PC-3 prostate,18.5 µM
same,GI50,U251 CNS,2.58 µM
same,TGI,U251 CNS,10.7 µM
same,GI50,NCI-H522 lung,2.12 µM
same,TGI,NCI-H522 lung,6.58 µM
same,GI50,OVCAR-5 ovarian,2.2 µM
same,TGI,OVCAR-5 ovarian,6.14 µM
same,GI50,SK-MEL-28 melanoma,4.49 µM
same,TGI,SK-MEL-28 melanoma,15.8 µM
same,GI50,DU-145 prostate,3.22 µM
same,TGI,DU-145 prostate,12 µM
same,GI50,HCT-116 colon,2.49 µM
same,TGI,HCT-116 colon,9.38 µM
same,GI50,SF-268 CNS,3.28 µM
same,TGI,SF-268 CNS,12 µM
same,GI50,SW-620 colon,2.86 µM
same,TGI,SW-620 colon,10.8 µM
same,GI50,CAKI-1 renal,3.18 µM
same,TGI,CAKI-1 renal,13 µM
same,GI50,MOLT-4 leukemia,2.4 µM
same,TGI,MOLT-4 leukemia,8.35 µM
same,GI50,RXF 393 renal,2.35 µM
same,TGI,RXF 393 renal,8.86 µM
same,GI50,SF-539 CNS,2.25 µM
same,TGI,SF-539 CNS,4.96 µM
same,GI50,MDA-MB-468 breast,2.04 µM
same,TGI,MDA-MB-468 breast,5.91 µM
same,GI50,CCRF-CEM leukemia,2.53 µM
same,TGI,CCRF-CEM leukemia,6.81 µM
same,GI50,UACC-62 melanoma,2.95 µM
same,TGI,UACC-62 melanoma,12.3 µM
same,GI50,SK-MEL-2 melanoma,10.4 µM
same,TGI,SK-MEL-2 melanoma,22.3 µM
same,GI50,HOP-62 NSCLC,2.88 µM
same,TGI,HOP-62 NSCLC,10.3 µM
same,GI50,HT29 colon,3.06 µM
same,TGI,HT29 colon,10.2 µM
same,GI50,NCI-H226 lung,3.96 µM
same,TGI,NCI-H226 lung,15.5 µM
same,GI50,MDA-MB-231 breast,2.72 µM
same,TGI,MDA-MB-231 breast,7.47 µM
same,GI50,HOP-92 NSCLC,2.08 µM
same,TGI,HOP-92 NSCLC,8.78 µM
same,GI50,SK-OV-3 ovarian,7.25 µM
same,TGI,SK-OV-3 ovarian,20.4 µM
same,GI50,IGROV1 ovarian,3.08 µM
same,TGI,IGROV1 ovarian,11.5 µM
same,GI50,UO-31 renal,2.9 µM
same,TGI,UO-31 renal,13.4 µM
same,GI50,HCT-15 colon,1.99 µM
same,TGI,HCT-15 colon,10.5 µM
same,GI50,NCI/ADR-RES ovarian,2.29 µM
same,TGI,NCI/ADR-RES ovarian,6.68 µM
same,GI50,MDA-MB-435,2.98 µM
same,TGI,MDA-MB-435,11.5 µM
same,GI50,HCC-2998 colon,2.65 µM
same,TGI,HCC-2998 colon,12 µM
same,GI50,SF-295 CNS,2.66 µM
same,TGI,SF-295 CNS,10.6 µM
same,GI50,786-0 renal,3.25 µM
same,TGI,786-0 renal,12.9 µM
same,GI50,K-562 leukemia,0.349 µM
same,TGI,K-562 leukemia,14.6 µM
same,GI50,SNB-19 CNS,4.02 µM
same,TGI,SNB-19 CNS,15.3 µM
same,GI50,SN12C renal,2.79 µM
same,TGI,SN12C renal,10.4 µM
same,GI50,A549 NSCLC,3.11 µM
same,TGI,A549 NSCLC,13 µM
same,GI50,T-47D breast,3.25 µM
same,TGI,T-47D breast,12.3 µM
same,GI50,TK-10 renal,3.54 µM
same,TGI,TK-10 renal,13 µM
same,GI50,SR leukemia,1.44 µM
same,TGI,SR leukemia,6.2 µM
same,GI50,OVCAR-4 ovarian,3.65 µM
same,TGI,OVCAR-4 ovarian,16.4 µM
same,GI50,BT-549 breast,2.58 µM
same,TGI,BT-549 breast,8.21 µM
